Results reported in PubChem BioAssay (NCI).
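1) Cells in 96-well plates. 2) Compound, 48 h, 5 concentrations. 3) Linear interpolation between surrounding doses. 4) Unreached endpoint = highest concentration. At the TGI there is no net growth.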

How the values were obtained:
Test in all cases: inhibition of tumour cell growth, NCI panel, 48 h
MCF7 breast = system: MCF7 breast
NCI-H460 lung = system: NCI-H460 lung
CCRF-CEM leukemia = system: CCRF-CEM leukemia
SNB-19 CNS = system: SNB-19 CNS
UACC-62 melanoma = system: UACC-62 melanoma
A498 renal = system: A498 renal
KM12 colon = system: KM12 colon
RPMI-8226 leukemia = system: RPMI-8226 leukemia
U251 CNS = system: U251 CNS
SN12C renal = system: SN12C renal
OVCAR-5 ovarian = system: OVCAR-5 ovarian
DU-145 prostate = system: DU-145 prostate
NCI-H522 lung = system: NCI-H522 lung
HCT-15 colon = system: HCT-15 colon
TK-10 renal = system: TK-10 renal
NCI/ADR-RES ovarian = system: NCI/ADR-RES ovarian
HL-60(TB) leukemia = system: HL-60(TB) leukemia
PC-3 prostate = system: PC-3 prostate
SR leukemia = system: SR leukemia
HOP-62 NSCLC = system: HOP-62 NSCLC
MOLT-4 leukemia = system: MOLT-4 leukemia
A549 NSCLC = system: A549 NSCLC
SNB-75 CNS = system: SNB-75 CNS
ACHN renal = system: ACHN renal
UACC-257 melanoma = system: UACC-257 melanoma
LOX IMVI melanoma = system: LOX IMVI melanoma
K-562 leukemia = system: K-562 leukemia
UO-31 renal = system: UO-31 renal
M14 melanoma = system: M14 melanoma
T-47D breast = system: T-47D breast
OVCAR-3 ovarian = system: OVCAR-3 ovarian
HS 578T breast = system: HS 578T breast
MALME-3M melanoma = system: MALME-3M melanoma
COLO 205 colon = system: COLO 205 colon
NCI-H226 lung = system: NCI-H226 lung
IGROV1 ovarian = system: IGROV1 ovarian
SK-MEL-5 melanoma = system: SK-MEL-5 melanoma
OVCAR-8 ovarian = system: OVCAR-8 ovarian
SF-268 CNS = system: SF-268 CNS
SW-620 colon = system: SW-620 colon
NCI-H23 lung = system: NCI-H23 lung
CAKI-1 renal = system: CAKI-1 renal
HCC-2998 colon = system: HCC-2998 colon
786-0 renal = system: 786-0 renal
RXF 393 renal = system: RXF 393 renal
MDA-MB-435 = system: MDA-MB-435
BT-549 breast = system: BT-549 breast
OVCAR-4 ovarian = system: OVCAR-4 ovarian
HCT-116 colon = system: HCT-116 colon
MDA-N = system: MDA-N
SF-539 CNS = system: SF-539 CNS
EKVX NSCLC = system: EKVX NSCLC
HT29 colon = system: HT29 colon
SK-MEL-28 melanoma = system: SK-MEL-28 melanoma
SF-295 CNS = system: SF-295 CNS
SK-MEL-2 melanoma = system: SK-MEL-2 melanoma
SK-OV-3 ovarian = system: SK-OV-3 ovarian
HOP-92 NSCLC = system: HOP-92 NSCLC
MDA-MB-231 breast = system: MDA-MB-231 breast

Molecule `O=C(O)c1ccccc1/C=C1\Cc2ccccc2C1=O` has a TGI (MCF7 breast) greater than 100 µM, a TGI (NCI-H460 lung) greater than 100 µM and a TGI (CCRF-CEM leukemia) greater than 100 µM. The TGI (SNB-19 CNS) was greater than 100 µM, the TGI (UACC-62 melanoma) was greater than 100 µM and the TGI (A498 renal) was greater than 100 µM. The TGI (KM12 colon) was greater than 100 µM, the TGI (RPMI-8226 leukemia) was greater than 100 µM and the TGI (U251 CNS) was greater than 100 µM. The TGI (SN12C renal) was greater than 100 µM, the TGI (OVCAR-5 ovarian) was greater than 100 µM and the TGI (DU-145 prostate) was greater than 100 µM. For the same molecule, the TGI (NCI-H522 lung) was greater than 100 µM, the TGI (HCT-15 colon) was greater than 100 µM and the TGI (TK-10 renal) was greater than 100 µM. For the same molecule, the TGI (NCI/ADR-RES ovarian) was greater than 100 µM, the TGI (HL-60(TB) leukemia) was greater than 100 µM and the TGI (PC-3 prostate) was greater than 100 µM. It also gave a TGI (SR leukemia) greater than 100 µM, a TGI (HOP-62 NSCLC) greater than 100 µM and a TGI (MOLT-4 leukemia) greater than 100 µM. The TGI (A549 NSCLC) was greater than 100 µM, the TGI (SNB-75 CNS) was greater than 100 µM and the TGI (ACHN renal) was greater than 100 µM. For the same molecule, the TGI (UACC-257 melanoma) was greater than 100 µM, the TGI (LOX IMVI melanoma) was greater than 100 µM and the TGI (K-562 leukemia) was greater than 100 µM. It also gave a TGI (UO-31 renal) greater than 100 µM, a TGI (M14 melanoma) greater than 100 µM and a TGI (T-47D breast) greater than 100 µM. For the same molecule, the TGI (OVCAR-3 ovarian) was greater than 100 µM, the TGI (HS 578T breast) was greater than 100 µM and the TGI (MALME-3M melanoma) was greater than 100 µM. It also gave a TGI (COLO 205 colon) greater than 100 µM, a TGI (NCI-H226 lung) greater than 100 µM and a TGI (IGROV1 ovarian) greater than 100 µM. For the same molecule, the TGI (SK-MEL-5 melanoma) was greater than 100 µM, the TGI (OVCAR-8 ovarian) was greater than 100 µM and the TGI (SF-268 CNS) was greater than 100 µM. It also gave a TGI (SW-620 colon) greater than 100 µM, a TGI (NCI-H23 lung) greater than 100 µM and a TGI (CAKI-1 renal) greater than 100 µM. For the same molecule, the TGI (HCC-2998 colon) was greater than 100 µM, the TGI (786-0 renal) was greater than 100 µM and the TGI (RXF 393 renal) was greater than 100 µM. The TGI (MDA-MB-435) was greater than 100 µM, the TGI (BT-549 breast) was greater than 100 µM and the TGI (OVCAR-4 ovarian) was greater than 100 µM. It also gave a TGI (HCT-116 colon) greater than 100 µM, a TGI (MDA-N) greater than 100 µM and a TGI (SF-539 CNS) greater than 100 µM. The TGI (EKVX NSCLC) was greater than 100 µM, the TGI (HT29 colon) was greater than 100 µM and the TGI (SK-MEL-28 melanoma) was greater than 100 µM. For the same molecule, the TGI (SF-295 CNS) was greater than 100 µM and the TGI (SK-MEL-2 melanoma) was greater than 100 µM.
`CS(=O)(=O)c1ccc(NNc2cc(=O)[nH]c(=O)[nH]2)cc1` showed a TGI (NCI-H460 lung) greater than 100 µM, a TGI (CCRF-CEM leukemia) greater than 100 µM and a TGI (SNB-19 CNS) greater than 100 µM. It also gave a TGI (UACC-62 melanoma) greater than 100 µM, a TGI (A498 renal) greater than 100 µM and a TGI (KM12 colon) greater than 100 µM. For the same molecule, the TGI (RPMI-8226 leukemia) was greater than 100 µM, the TGI (U251 CNS) was greater than 100 µM and the TGI (SK-OV-3 ovarian) was greater than 100 µM. For the same molecule, the TGI (HOP-92 NSCLC) was greater than 100 µM, the TGI (SN12C renal) was greater than 100 µM and the TGI (OVCAR-5 ovarian) was greater than 100 µM. It also gave a TGI (DU-145 prostate) greater than 100 µM, a TGI (NCI-H522 lung) of 40.2 µM and a TGI (HCT-15 colon) greater than 100 µM. The TGI (TK-10 renal) was 9.34 µM, the TGI (NCI/ADR-RES ovarian) was greater than 100 µM and the TGI (HL-60(TB) leukemia) was greater than 100 µM. For the same molecule, the TGI (PC-3 prostate) was greater than 100 µM, the TGI (SR leukemia) was greater than 100 µM and the TGI (HOP-62 NSCLC) was greater than 100 µM. It also gave a TGI (MOLT-4 leukemia) greater than 100 µM, a TGI (A549 NSCLC) greater than 100 µM and a TGI (SNB-75 CNS) greater than 100 µM. The TGI (ACHN renal) was greater than 100 µM, the TGI (UACC-257 melanoma) was greater than 100 µM and the TGI (LOX IMVI melanoma) was greater than 100 µM. The TGI (MDA-MB-231 breast) was greater than 100 µM, the TGI (K-562 leukemia) was greater than 100 µM and the TGI (UO-31 renal) was greater than 100 µM. It also gave a TGI (M14 melanoma) greater than 100 µM, a TGI (T-47D breast) greater than 100 µM and a TGI (OVCAR-3 ovarian) greater than 100 µM. The TGI (HS 578T breast) was greater than 100 µM, the TGI (MALME-3M melanoma) was greater than 100 µM and the TGI (COLO 205 colon) was greater than 100 µM. It also gave a TGI (NCI-H226 lung) greater than 100 µM, a TGI (IGROV1 ovarian) greater than 100 µM and a TGI (SK-MEL-5 melanoma) greater than 100 µM. The TGI (SF-268 CNS) was greater than 100 µM, the TGI (SW-620 colon) was greater than 100 µM and the TGI (NCI-H23 lung) was greater than 100 µM. The TGI (HCC-2998 colon) was greater than 100 µM, the TGI (786-0 renal) was greater than 100 µM and the TGI (RXF 393 renal) was greater than 100 µM. It also gave a TGI (BT-549 breast) greater than 100 µM, a TGI (OVCAR-4 ovarian) greater than 100 µM and a TGI (HCT-116 colon) greater than 100 µM. It also gave a TGI (MDA-N) greater than 100 µM, a TGI (SF-539 CNS) greater than 100 µM and a TGI (HT29 colon) greater than 100 µM. For the same molecule, the TGI (SK-MEL-28 melanoma) was greater than 100 µM, the TGI (SF-295 CNS) was greater than 100 µM and the TGI (SK-MEL-2 melanoma) was greater than 100 µM.
